# Experimental data published in patent US6391921B1 (priority 2000, dated 2002).
# pIC50: −log10 of the molar value.
# Key:
# BTK = target: T1, BTK (Homo sapiens, UniProt Q06187); assay: BTK tyrosine kinase assay; assay type: biochemical; conditions: 1 hour exposure
# T1 construct: made in house; host or cells: Sf21 insect cells (baculovirus)
# Experimental: Sf21 (IPLB-SF21-AE) cells derived from the ovarian tissue of the fall armyworm Spodotera frugiperda, were obtained from Invitrogen and maintained at 26-28° C. in Grace's insect cell medium supplemented with 10% FBS and 1.0% antibiotic/antimycotic (GIBCO-BRL). Stock cells were maintained in suspension at 0.2-1.6×10^6/ml in 600 ml total culture volume in 1 L Bellco spinner flasks at 60-90 rpm. Cell viability was maintained at 95-100% as determined by trypan blue dye exclusion.
# Sf21 cells were infected with a baculovirus expression vector for BTK or SYK, as previously described (refs 18 and 19). […]
# Following electrophoresis, kinase gels were dried onto Whatman 3M filter paper and subjected to phosphoimaging on a Molecular Imager (Bio-Rad, Hercules, Calif.) as well as autoradiography on film. […] For each drug concentration, a BTK or SYK kinase activity index was determined by comparing the ratios of the kinase activity in phosphorimager units (PIU) and density of the protein bands in densitometric scanning units (DSU) to those of the baseline sample and using the formula: Activity Index=[PIU of kinase band/DSU of BTK/SYK protein band]test sample: [PIU of kinase band/DSU of BTK/SYK protein band]baseline control sample.
# RBL-2H3 mast cells = assay: Ionomycin or thapsigargin induced calcium mobilization in mast cells; assay type: cell-based, rat; conditions: 30 μM compound for 20 minutes, FIG. 2B
# Description: An alternative mechanism for the cells to maintain low cytosolic calcium levels is the activation of cell plasma membrane calcium ATPase or calcium pump (refs 32 and 33). Therefore, the effect of compound D-58 on ionophore and thapsigargin induced calcium mobilization also was studied. Ionomycin takes extracellular calcium inside the cells, and bypasses most of the signal transduction events, whereas thapsigargin inhibits endoplasmic reticulum calcium pump, and selectively depletes IP3-sensitive storage resulting in an increase in the cytosolic calcium levels (ref 33). In summary, IgE-sensitized RBL-2H3 cells were treated with 30 μM compound D-58 for 20 minutes and challenged with DNP-BSA (20 ng/ml). The cells were then stimulated with either ionomycin (1 μM), or thapsigargin (2 μM). The arrows indicate the time points at which the cells were exposed to the agents.
# The fluorescent Ca^2+ indicator, fluo-3/AM (Molecular Probes) was used to detect Ca^2+ mobilizations in individual cells (ref 25). Briefly, the IgE sensitized monolayers of mast cells were incubated with 1 μM fluo-3/AM at 37° C. for 30 minutes. After incubation the cells were washed twice and 1 ml PIPES buffer was added to the wells. […] The image acquisition and fluorescence intensity analysis were controlled by the software MetaFluor (Universal Imaging Co.). The background fluorescence was subtracted from each image.
# RBL-2H3 cells = assay: Mast cell viability by trypan blue dye exclusion; assay type: cell-based, rat; conditions: 300 μM, 2 hour treatment at 37° C.
# Description: The viability of compound D-58-treated mast cells ranged from 91 to 92%. […] Stimulation of RBL-2H3 mast cells using IgE/antigen as a stimulus induced the release of significant amounts of preformed granule-associated β-hexosaminidase (47.2±7.9% of total cellular content) as well as newly synthesized LTC4 (5.8±1.8 pg/10^6 cells).
# Balb/c mice = assay: Carrageenan air pouch model of acute inflammation, PGE2 release in vivo; conditions: 50 mg/kg i.p. twice before carrageenan challenge; 4 hours after challenge; FIG. 6
# Experimental: The effects of compound D-58 on PGE2 release in vivo were examined using a well characterized air pouch mouse model of acute inflammation (ref 36). An acute inflammatory response was induced in the air pouches of mice by the injection of carrageenan, a sulfated polysaccharide obtained from the alga Chondrus crispus (ref 36).
# Balb/c (6-8 weeks old male) mice were utilized for these experiments. To create an air pouch, mice were injected with 3 ml sterile air subcutaneously using a 30 gauge needle on days 0 and 3 as described previously (refs 30 and 31). Six days after the initial injection of air, mice were injected with 2 ml of 1% carrageenan into the subcutaneous air pouch.
# In order to study the effect of compound D-58, a group of mice was injected with the drug i.p. 60 minutes and 30 minutes before the carrageenan challenge. Control mice were treated with vehicle alone. After 4 hours of challenge with carrageenan, mice were sacrificed and the contents of the air pouches were harvested by lavage with 2 ml cold saline. The recovered fluids were centrifuged at 250×g for 15 minutes at 4° C. Supernatants were saved at −80° C. for the estimation the of prostaglandin E2 contents. […]
# The data points represent the mean±SEM values (n=4-5 mice). *p<0.05 compared to vehicle-treated controls was determined by Student's t test.
# T1 sequence (Q06187 whole entry, species assumed): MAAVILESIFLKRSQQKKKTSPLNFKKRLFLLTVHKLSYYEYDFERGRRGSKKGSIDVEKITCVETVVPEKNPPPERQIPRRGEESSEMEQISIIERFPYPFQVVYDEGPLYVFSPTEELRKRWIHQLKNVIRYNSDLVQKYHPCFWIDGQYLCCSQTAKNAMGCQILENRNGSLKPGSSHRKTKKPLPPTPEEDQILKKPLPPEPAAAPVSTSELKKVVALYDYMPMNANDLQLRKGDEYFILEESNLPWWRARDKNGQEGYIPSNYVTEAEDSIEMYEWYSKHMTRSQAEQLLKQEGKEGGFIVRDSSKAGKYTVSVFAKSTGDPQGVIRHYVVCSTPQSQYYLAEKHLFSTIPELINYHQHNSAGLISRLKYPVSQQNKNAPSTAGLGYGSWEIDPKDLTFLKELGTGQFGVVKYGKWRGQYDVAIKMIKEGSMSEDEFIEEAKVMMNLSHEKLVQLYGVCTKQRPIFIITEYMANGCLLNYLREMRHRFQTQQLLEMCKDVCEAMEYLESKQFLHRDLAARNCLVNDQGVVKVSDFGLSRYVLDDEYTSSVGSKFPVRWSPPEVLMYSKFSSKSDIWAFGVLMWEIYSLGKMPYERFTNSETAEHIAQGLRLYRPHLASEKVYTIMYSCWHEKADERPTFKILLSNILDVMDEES
structure (smiles),measurement,setting,value
COc1ccc(CC(=O)c2c(O)cc(O)cc2O)cc1 [Compound D-58],pIC50,"BTK; first experiment, FIG. 1A",4.73
same,pIC50,"BTK; second experiment, FIG. 1C",4.45
same,calcium response induced by ionomycin,RBL-2H3 mast cells; 1 μM ionomycin,did not inhibit
same,calcium response induced by thapsigargin,RBL-2H3 mast cells; 2 μM thapsigargin,did not inhibit
same,effect on viability of RBL-2H3 cells,RBL-2H3 cells,did not affect the viability
same,decrease of PGE2 release into the air pouch,Balb/c mice,approximately 50%
